In patent US7795290B2 (Genentech, Inc., priority 2004, dated 2010):

Assays:
Assay in all cases: HTS ATP-utilizing enzyme assay, off-chip mobility-shift (Caliper HTS 250)
Assay type in all cases: biochemical
Conditions in all cases: kinase named = inhibitory activity/selectivity; test compound 10 μM; active = greater than three-sigma from mean
ZAP70 = biological target: T1, ZAP70 (Homo sapiens, UniProt P43403)
T1 sequence (P43403 1-619): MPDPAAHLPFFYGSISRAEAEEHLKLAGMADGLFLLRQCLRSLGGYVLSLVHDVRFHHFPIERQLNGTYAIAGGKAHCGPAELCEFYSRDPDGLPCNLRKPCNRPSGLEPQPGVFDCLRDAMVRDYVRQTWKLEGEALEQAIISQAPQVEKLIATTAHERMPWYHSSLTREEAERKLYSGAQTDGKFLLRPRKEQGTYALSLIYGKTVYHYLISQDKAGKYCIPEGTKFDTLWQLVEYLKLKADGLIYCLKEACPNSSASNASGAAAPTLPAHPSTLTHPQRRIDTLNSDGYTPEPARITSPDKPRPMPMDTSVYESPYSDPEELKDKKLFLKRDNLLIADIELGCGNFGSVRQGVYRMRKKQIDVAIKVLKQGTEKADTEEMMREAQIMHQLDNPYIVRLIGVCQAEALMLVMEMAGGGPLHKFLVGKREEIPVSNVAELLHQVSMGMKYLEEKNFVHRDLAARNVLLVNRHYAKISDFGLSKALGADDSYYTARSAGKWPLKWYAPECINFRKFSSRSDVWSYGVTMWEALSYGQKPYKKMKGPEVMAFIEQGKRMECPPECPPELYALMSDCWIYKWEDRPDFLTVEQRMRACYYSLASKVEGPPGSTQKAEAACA
Source text: (§1) The following procedures describe the reagent and plate preparation for a HTS of an ATP-utilizing enzyme, such as a protein kinase, run in an off-chip mobility-shift assay format. The following provides an HTS protocol for running a protein kinase HTS screen on a Caliper HTS 250 microfluidics system. The following parameters are dependent on the protein kinase used and can be determined by one skilled in the art as part of a typical assay development process. For example, the peptide substrate used can be identified from the current literature, by screening a peptide library of potential protein kinase substrates, or by other applicable means accepted in the field.
(§2) Assays to determine the kinase inhibitory activity of chemical entities of the present disclosure were performed using a Caliper HTS 250 microfluidics device, Greiner U-bottom assay plates, a Multidrop for transfer of reagents, and Biomek FX (AMNCBM03) software. Initially, 2.4 μL of a 1 mM solution of a test compound in 100% DMSO was added to a well of the Greiner U-bottom plate. A single Greiner U-bottom plate having 24×16 wells could include multiple test compounds. Next, 40 μL of 1.06× Assay Buffer was added to each well of the assay plate. Using the Biomek FX, 10 μL of 0.5 M EDTA was added by the span-8 to wells, indicated as 100% Control and 2.4 μL of 100% DMSO was added by the span-8 to wells, indicated as 0% Control. Using the Multidrop, 10 μL of 2.5× Enzyme Buffer, followed by 10 μL of 2.5× Substrate Buffer was added to each well of the assay plate. The total reaction volume in each well was 25 μL, and the concentration of the test compound was 10 μM. The assay plate was incubated for 2.5 hrs at 20° C. to 22° C. After the incubation period, using the Multidrop, 45 μL of 1.55× Termination Buffer was added to each well of the assay plate to stop the reaction. The inhibition of the ATP-utilizing enzyme, such as a particular protein kinase, was determined by measuring the ratio of the peptide substrate to phosphorylated product for each well of the assay plate using the Caliper HTS 250 system.
(§3) The use of three-sigma statistical limits represents a conservative method for declaring potential hits among targets. The three-sigma activity, as well as the mean population activity, can be different for each target enzyme. This method has an expected false positive rate, from an in-control measurement process, of […].
(§4) Each chemical entity listed in Table 2 was tested for protein kinase inhibitory activity according to the biological assays and definitions of protein kinase inhibitory activity as described herein. For each exemplary compound listed in Table 2, the inhibitory activity for at least one protein kinase according to the biological assays and definitions of protein kinase inhibitory activity as described herein is indicated.

KIT = KIT (Homo sapiens, UniProt P10721)
Chain of KIT (P10721 26-976): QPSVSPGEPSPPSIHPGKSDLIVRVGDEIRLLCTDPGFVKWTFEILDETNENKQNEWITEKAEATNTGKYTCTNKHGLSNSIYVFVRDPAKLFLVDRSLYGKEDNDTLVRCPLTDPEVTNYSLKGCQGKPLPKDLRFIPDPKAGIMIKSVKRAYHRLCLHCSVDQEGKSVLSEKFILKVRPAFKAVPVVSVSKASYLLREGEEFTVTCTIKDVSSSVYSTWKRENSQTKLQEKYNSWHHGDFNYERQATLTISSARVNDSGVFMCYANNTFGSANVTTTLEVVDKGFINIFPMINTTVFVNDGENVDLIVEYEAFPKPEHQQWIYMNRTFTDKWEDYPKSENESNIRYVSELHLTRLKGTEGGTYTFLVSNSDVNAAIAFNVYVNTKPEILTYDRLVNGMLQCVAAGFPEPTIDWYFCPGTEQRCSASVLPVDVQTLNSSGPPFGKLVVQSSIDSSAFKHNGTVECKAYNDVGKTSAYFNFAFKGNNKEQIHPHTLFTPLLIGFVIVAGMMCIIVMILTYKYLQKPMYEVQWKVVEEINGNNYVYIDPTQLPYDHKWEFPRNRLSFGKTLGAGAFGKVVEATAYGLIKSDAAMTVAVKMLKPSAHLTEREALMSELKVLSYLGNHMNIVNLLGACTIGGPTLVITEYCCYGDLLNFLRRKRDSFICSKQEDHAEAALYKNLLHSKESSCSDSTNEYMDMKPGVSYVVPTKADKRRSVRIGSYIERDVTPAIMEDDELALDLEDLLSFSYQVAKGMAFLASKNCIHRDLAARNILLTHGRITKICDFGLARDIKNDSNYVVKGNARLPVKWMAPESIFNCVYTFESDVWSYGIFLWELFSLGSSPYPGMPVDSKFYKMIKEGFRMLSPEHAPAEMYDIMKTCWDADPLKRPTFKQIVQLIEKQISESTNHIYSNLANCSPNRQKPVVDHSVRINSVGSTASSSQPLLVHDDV
Source text: as §1, §2, §3, §4

AKT1 = biological target: T2, AKT1 (Homo sapiens, UniProt P31749)
T2 construct: purchased Upstate 14-276
T2 sequence (P31749 whole entry): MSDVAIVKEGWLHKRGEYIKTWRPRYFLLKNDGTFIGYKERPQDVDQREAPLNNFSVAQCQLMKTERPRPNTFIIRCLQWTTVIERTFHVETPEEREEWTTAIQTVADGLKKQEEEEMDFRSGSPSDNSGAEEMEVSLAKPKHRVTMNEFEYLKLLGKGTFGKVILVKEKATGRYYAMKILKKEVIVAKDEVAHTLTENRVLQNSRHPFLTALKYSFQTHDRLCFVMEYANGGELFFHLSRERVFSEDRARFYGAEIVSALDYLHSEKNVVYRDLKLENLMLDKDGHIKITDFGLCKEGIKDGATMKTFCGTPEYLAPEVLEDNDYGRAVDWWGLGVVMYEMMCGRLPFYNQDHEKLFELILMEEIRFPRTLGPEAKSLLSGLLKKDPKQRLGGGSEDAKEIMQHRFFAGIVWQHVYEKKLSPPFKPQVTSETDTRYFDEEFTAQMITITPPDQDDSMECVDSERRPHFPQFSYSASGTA
Summary of the method: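 AKT1 activity was measured by off-chip mobility shift (Caliper HTS 250) as the ratio of peptide substrate to phosphorylated product. Test compound was at 10 μM, with 2.5 h incubation at 20–22° C. EDTA wells served as 100% control and DMSO wells as 0%. Hits were called at three-sigma limits.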

CHEK2 = CHEK2 (Homo sapiens, UniProt O96017)
Chain of CHEK2 (O96017 whole entry): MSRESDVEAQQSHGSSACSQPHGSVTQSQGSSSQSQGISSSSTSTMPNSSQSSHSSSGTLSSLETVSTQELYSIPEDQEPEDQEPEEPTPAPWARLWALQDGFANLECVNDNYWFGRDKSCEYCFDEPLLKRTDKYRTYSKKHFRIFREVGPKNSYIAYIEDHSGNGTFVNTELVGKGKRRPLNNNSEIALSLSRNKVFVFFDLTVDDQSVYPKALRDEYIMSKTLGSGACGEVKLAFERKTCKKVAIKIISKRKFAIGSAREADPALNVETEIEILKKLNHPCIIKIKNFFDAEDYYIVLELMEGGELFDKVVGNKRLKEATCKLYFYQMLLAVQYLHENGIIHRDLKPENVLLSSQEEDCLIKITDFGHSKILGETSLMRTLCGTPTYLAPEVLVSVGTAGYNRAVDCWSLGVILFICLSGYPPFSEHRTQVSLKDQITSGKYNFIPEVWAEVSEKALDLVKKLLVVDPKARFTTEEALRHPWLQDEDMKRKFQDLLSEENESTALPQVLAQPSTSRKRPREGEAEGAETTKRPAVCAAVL
Source text: as §1, §2, §3, §4

DYRK2 = biological target: T3, DYRK2 (Homo sapiens, UniProt Q92630)
T3 sequence (Q92630 1-601): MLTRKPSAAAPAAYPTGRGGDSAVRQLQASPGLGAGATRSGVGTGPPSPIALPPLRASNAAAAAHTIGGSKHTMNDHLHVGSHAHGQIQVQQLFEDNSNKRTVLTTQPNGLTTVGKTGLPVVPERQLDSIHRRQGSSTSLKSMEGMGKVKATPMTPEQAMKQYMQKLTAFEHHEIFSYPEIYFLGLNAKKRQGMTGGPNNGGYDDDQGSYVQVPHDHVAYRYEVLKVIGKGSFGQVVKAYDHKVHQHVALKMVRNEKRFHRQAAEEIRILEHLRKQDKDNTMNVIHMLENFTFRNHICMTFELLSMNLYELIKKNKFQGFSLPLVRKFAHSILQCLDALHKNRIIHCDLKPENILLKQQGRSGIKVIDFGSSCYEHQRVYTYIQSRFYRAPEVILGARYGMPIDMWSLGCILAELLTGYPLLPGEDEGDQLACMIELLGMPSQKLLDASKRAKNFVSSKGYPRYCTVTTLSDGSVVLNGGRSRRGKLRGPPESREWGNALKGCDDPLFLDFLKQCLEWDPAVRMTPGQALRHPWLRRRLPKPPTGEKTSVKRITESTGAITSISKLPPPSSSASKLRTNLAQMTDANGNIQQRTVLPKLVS
Source text: as §1, §2, §3, §4

## COc1ccc(-c2csc(N(CCCN3CCOCC3)C(=O)c3nsc(Cl)c3Cl)n2)cc1 [4,5-dichloro-N-(4-(4-methoxyphenyl)thiazol-2-yl)-N-(3-morpholinopropyl)isothiazole-3-carboxamide]
ZAP70
  Activity: ZAP70

## O=C(c1cccs1)N(CCCN1CCOCC1)c1nc(-c2ccnc(Cl)c2)cs1 [N-(4-(2-chloropyridin-4-yl)thiazol-2-yl)-N-(3-morpholinopropyl)thiophene-2-carboxamide]
KIT
  Activity: KIT
AKT1
  Activity: AKT1

## CCN(CC)CCCN(C(=O)c1ccccc1F)c1nc(-c2cc(OC)ccc2OC)cs1 [N-(3-(diethylamino)propyl)-N-(4-(2,5-dimethoxyphenyl)thiazol-2-yl)-2-fluorobenzamide]
CHEK2
  Activity: CHEK2
AKT1
  Activity: AKT1

## COc1ccc(-c2csc(N(CCCN3CCN(C)CC3)C(=O)c3ccccc3)n2)cc1 [N-(4-(4-methoxyphenyl)thiazol-2-yl)-N-(3-(4-methylpiperazin-1-yl)propyl)benzamide]
CHEK2
  Activity: CHEK2
AKT1
  Activity: AKT1

## CCN(CC)CCCN(C(=O)c1ccccc1Cl)c1nc(-c2cc(OC)ccc2OC)cs1 [2-chloro-N-(3-(diethylamino)propyl)-N-(4-(2,5-dimethoxyphenyl)thiazol-2-yl)benzamide]
CHEK2
  Activity: CHEK2

## COc1ccc(-c2csc(N(CCCN3CCOCC3)C(=O)c3ccc(Br)s3)n2)cc1 [5-bromo-N-(4-(4-methoxyphenyl)thiazol-2-yl)-N-(3-morpholinopropyl)thiophene-2-carboxamide]
ZAP70
  Activity: ZAP70
AKT1
  Activity: AKT1

## CN(C)CCCN(C(=O)c1ccccc1F)c1nc(-c2ccccc2)cs1 [N-(3-(dimethylamino)propyl)-2-fluoro-N-(4-phenylthiazol-2-yl)benzamide]
CHEK2
  Activity: CHEK2
AKT1
  Activity: AKT1

## COc1ccc(-c2csc(N(CCCN3CCOCC3)C(=O)c3conc3C)n2)cc1 [N-(4-(4-methoxyphenyl)thiazol-2-yl)-3-methyl-N-(3-morpholinopropyl)isoxazole-4-carboxamide]
ZAP70
  Activity: ZAP70
DYRK2
  Activity: DYRK2

## COc1ccc(-c2csc(N(CCCN3CCOCC3)C(=O)c3sccc3Br)n2)cc1 [3-bromo-N-(4-(4-methoxyphenyl)thiazol-2-yl)-N-(3-morpholinopropyl)thiophene-2-carboxamide]
ZAP70
  Activity: ZAP70
AKT1
  Activity: AKT1

## COc1ccc(OC)c(-c2csc(N(CCCN3CCN(C)CC3)C(=O)c3ccco3)n2)c1 [N-(4-(2,5-dimethoxyphenyl)thiazol-2-yl)-N-(3-(4-methylpiperazin-1-yl)propyl)furan-2-carboxamide]
CHEK2
  Activity: CHEK2
AKT1
  Activity: AKT1

## COc1ccc(-c2csc(N(Cc3ccccc3)C(=O)CCC(=O)O)n2)cc1 [4-(benzyl(4-(4-methoxyphenyl)thiazol-2-yl)amino)-4-oxobutanoic acid]
DYRK2
  Activity: DYRK2

## COc1ccc(-c2csc(N(CCCN3CCOCC3)C(=O)c3ccco3)n2)cc1 [N-(4-(4-methoxyphenyl)thiazol-2-yl)-N-(3-morpholinopropyl)furan-2-carboxamide]
DYRK2
  Activity: DYRK2
AKT1
  Activity: AKT1

## CCN(CC)CCCN(C(=O)COc1ccc(C)cc1)c1nc(-c2ccc(OC)cc2)cs1 [N-(3-(diethylamino)propyl)-N-(4-(4-methoxyphenyl)thiazol-2-yl)-2-(p-tolyloxy)acetamide]
DYRK2
  Activity: DYRK2

## COc1ccc(-c2csc(N(CCCN3CCOCC3)C(=O)c3ccccc3C#N)n2)cc1 [2-cyano-N-(4-(4-methoxyphenyl)thiazol-2-yl)-N-(3-morpholinopropyl)benzamide]
ZAP70
  Activity: ZAP70

## COc1ccc(-c2csc(N(CCc3ccc(OC)c(OC)c3)C(=O)CCC(=O)O)n2)cc1 [4-((3,4-dimethoxyphenethyl)(4-(4-methoxyphenyl)thiazol-2-yl)amino)-4-oxobutanoic acid]
DYRK2
  Activity: DYRK2

## COc1ccc(-c2csc(N(CCCN3CCOCC3)C(=O)c3ccc(C(C)=O)s3)n2)cc1 [5-acetyl-N-(4-(4-methoxyphenyl)thiazol-2-yl)-N-(3-morpholinopropyl)thiophene-2-carboxamide]
ZAP70
  Activity: ZAP70

## COc1ccc(-c2csc(N(CCCN3CCOCC3)C(C)=O)n2)cc1 [N-(4-(4-methoxyphenyl)thiazol-2-yl)-N-(3-morpholinopropyl)acetamide]
DYRK2
  Activity: DYRK2

## CCC(=O)N(CC)c1nc(-c2ccc(OC)cc2)cs1 [N-ethyl-N-(4-(4-methoxyphenyl)thiazol-2-yl)propionamide]
DYRK2
  Activity: DYRK2

## COCCCN(C(=O)CCC(=O)O)c1nc(-c2ccc(OC)cc2)cs1 [4-((4-(4-methoxyphenyl)thiazol-2-yl)(3-methoxypropyl)amino)-4-oxobutanoic acid]
DYRK2
  Activity: DYRK2

## COc1ccc(OC)c(-c2csc(N(CCCN(C)C)C(=O)c3cccs3)n2)c1 [N-(4-(2,5-dimethoxyphenyl)thiazol-2-yl)-N-(3-(dimethylamino)propyl)thiophene-2-carboxamide]
CHEK2
  Activity: CHEK2
AKT1
  Activity: AKT1

## CN1CCN(CCCN(C(=O)c2cccs2)c2nc(-c3ccccc3)cs2)CC1 [N-(3-(4-methylpiperazin-1-yl)propyl)-N-(4-phenylthiazol-2-yl)thiophene-2-carboxamide]
CHEK2
  Activity: CHEK2
AKT1
  Activity: AKT1

## COc1ccc(-c2csc(N(CCCN3CCOCC3)C(=O)c3cccc(Cl)n3)n2)cc1 [6-chloro-N-(4-(4-methoxyphenyl)thiazol-2-yl)-N-(3-morpholinopropyl)picolinamide]
ZAP70
  Activity: ZAP70
AKT1
  Activity: AKT1

## COc1ccc(OC)c(-c2csc(N(CCCN(C)C)C(=O)c3ccccc3F)n2)c1 [N-(4-(2,5-dimethoxyphenyl)thiazol-2-yl)-N-(3-(dimethylamino)propyl)-2-fluorobenzamide]
CHEK2
  Activity: CHEK2
AKT1
  Activity: AKT1

## COc1ccc(-c2csc(N(C)C(=O)CCC(=O)O)n2)cc1 [4-((4-(4-methoxyphenyl)thiazol-2-yl)(methyl)amino)-4-oxobutanoic acid]
DYRK2
  Activity: DYRK2
